pIC50: −log10 of the molar value.
Tests used:
dCTP pyrophosphatase 1 = target: T1, dCTP pyrophosphatase 1 (Homo sapiens, UniProt Q9H773)
T1 sequence (Q9H773 whole entry): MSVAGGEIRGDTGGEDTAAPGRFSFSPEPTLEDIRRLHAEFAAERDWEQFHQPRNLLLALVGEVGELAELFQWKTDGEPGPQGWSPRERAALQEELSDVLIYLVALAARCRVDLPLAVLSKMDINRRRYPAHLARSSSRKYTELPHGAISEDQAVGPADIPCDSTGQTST
Description: Inhibition of human full length N-terminal His-tagged dCTPase expressed in Escherichia coli BL21(DE3) using dCTP as substrate by HTS-based malachite green assay

hTERT-BJ = assay: Cytotoxicity against human hTERT-BJ cells assessed as reduction in cell viability after 72 hrs by Resazurin assay; assay type: cell-based
[1] = Drug uptake in human MCF7 cells up to 20 uM; assay type: ADME, cell-based
[2] = Drug uptake in human HL60 cells at 10 uM; assay type: ADME, cell-based; conditions: hl-60, 10 µM
Stearoyl-CoA desaturase = target: T2, Stearoyl-CoA desaturase (Homo sapiens, UniProt O00767)
T2 sequence (O00767 whole entry): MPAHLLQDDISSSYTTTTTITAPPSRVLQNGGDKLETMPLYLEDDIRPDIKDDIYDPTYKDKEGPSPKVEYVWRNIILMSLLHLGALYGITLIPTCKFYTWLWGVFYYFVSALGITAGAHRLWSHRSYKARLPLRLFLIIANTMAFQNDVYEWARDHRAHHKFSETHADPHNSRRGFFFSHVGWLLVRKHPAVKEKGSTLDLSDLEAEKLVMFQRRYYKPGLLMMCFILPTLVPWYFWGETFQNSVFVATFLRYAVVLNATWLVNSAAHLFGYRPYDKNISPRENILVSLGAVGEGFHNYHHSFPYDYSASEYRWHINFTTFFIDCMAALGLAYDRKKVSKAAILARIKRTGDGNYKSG
Description: Inhibition of SCD1 in human HepG2 cells assessed as ratio of cellular protein product over substrate after 72 hrs

HL-60 = assay: Synergistic cytotoxicity against human HL60 cells assessed as reduction in cell viability after 72 hrs in presence of 5-AzaC by Resazurin assay; assay type: functional

pIC50 (dCTP pyrophosphatase 1)	SMILES	further results
< 5.00	C=C(CCc1ccc(F)cc1)c1ccc(N2CCN(S(=O)(=O)c3ccccc3C)CC2)nn1	–
7.39	C#CCOC(=O)c1ccc(N2CCN(S(=O)(=O)c3ccccc3N3CCC(O)CC3)CC2)nn1	Activity (hTERT-BJ): Non-Toxic; Drug uptake [1]: > 50%; Drug uptake [2]: > 50%
7.42	Cc1ccccc1S(=O)(=O)N1CCN(c2ccc(C(=O)OCc3ccccc3)nn2)CC1	–
–	Cc1nnc(-c2ccc(N3CCC(Oc4cc(F)ccc4Cl)CC3)nn2)o1	pIC50 (Stearoyl-CoA desaturase): 6.17
5.55	O=C(NCCc1ccccc1)c1ccc(N2CCN(C(=O)c3ccccc3C(F)(F)F)CC2)nn1	–
6.77	Cc1ccccc1S(=O)(=O)N1CCN(c2ccc(C(=O)NCc3ccccc3)nn2)CC1	Activity (hTERT-BJ): Non-Toxic; CI (HL-60): <1; pIC50 (Stearoyl-CoA desaturase): 4.70
7.19	Cc1ccccc1S(=O)(=O)N1CCN(c2ccc(C(=O)NCc3ccc(F)cc3)nn2)CC1	Drug uptake [1]: > 50%; Drug uptake [2]: > 50%
6.59	O=C(NCc1ccccc1)c1ccc(N2CCN(S(=O)(=O)c3ccccc3N3CCC(O)CC3)CC2)nn1	–
< 5.00	O=C(Nc1ccccc1)c1ccc(N2CCN(C(=O)c3ccccc3C(F)(F)F)CC2)nn1	–
5.49	Cc1ccccc1S(=O)(=O)N1CCCN(c2ccc(C(=O)NCc3ccccc3)nn2)CC1	–
< 5.00	Cc1ccccc1S(=O)(=O)N1CCN(c2ccc(CNCc3ccccc3)nn2)CC1	–
< 5.00	Cc1ccccc1S(=O)(=O)N1CCN(c2ccc(C(CO)(CO)CCc3ccc(F)cc3)nn2)CC1	–
7.44	Cc1ncccc1S(=O)(=O)N1CCN(c2ccc(C(=O)NCc3ccc(F)cc3)nn2)CC1	Activity (hTERT-BJ): Non-Toxic; Drug uptake [1]: > 50%; Drug uptake [2]: > 50%
5.96	Cc1ccccc1[S+]([O-])C1CCN(c2ccc(C(=O)NCc3ccccc3)nn2)CC1 (stereo not given)	–
7.47	C#CCNC(=O)c1ccc(N2CCN(S(=O)(=O)c3cccc(Cl)c3C)CC2)nn1	–
5.77	Cc1ccccc1S(=O)(=O)N1CC2CC1CN2c1ccc(C(=O)NCc2ccccc2)nn1 (stereo not given)	–
< 5.00	Cc1ccccc1S(=O)(=O)N1CCN(c2ccc(C3(CCc4ccc(F)cc4)COC3)nn2)CC1	–
6.28	Cc1ccccc1S(=O)(=O)C1CCN(c2ccc(C(=O)NCc3ccccc3)nn2)CC1	–
7.29	Cc1ccccc1S(=O)(=O)N1CCN(c2ccc(C(=O)NCc3cccs3)nn2)CC1	CI (HL-60): <1
7.72	Cc1c(Cl)cccc1S(=O)(=O)N1CCN(c2ccc(C(=O)NCc3cccs3)nn2)CC1	CI (HL-60): <1
6.46	O=C(NCc1ccccc1)c1ccc(N2CCN(S(=O)(=O)c3ccccc3F)CC2)nn1	–
7.60	O=C(NCc1ccc(F)cc1)c1ccc(N2CCN(S(=O)(=O)c3cccnc3Cl)CC2)nn1	–
6.59	Cc1ccccc1S(=O)(=O)N1CCN(c2ccc(C(=O)CCc3ccc(F)cc3)nn2)CC1	–
< 5.00	Cc1ccccc1S(=O)(=O)N1CCN(c2ccc(S(=O)(=O)CCc3ccccc3)nn2)CC1	–
6.30	CN(C)c1ccccc1S(=O)(=O)N1CCN(c2ccc(C(=O)NCc3ccccc3)nn2)CC1	–
6.60	O=C(NCc1ccccc1)c1ccc(N2CCN(S(=O)(=O)c3ccccc3C(F)(F)F)CC2)nn1	–
6.62	O=C(NCc1ccccc1)c1ccc(N2CCN(C(=O)c3ccccc3C(F)(F)F)CC2)nn1	–

Source: ChEMBL document CHEMBL4014328, “Piperazin-1-ylpyridazine Derivatives Are a Novel Class of Human dCTP Pyrophosphatase 1 Inhibitors” (J Med Chem, 2017)
